Assay results: patent US20210122739A1, “NOVEL SULFONAMIDE CARBOXAMIDE COMPOUNDS” (Inflazome Limited, priority 2017, published 2021)

Tests used:
[1] = PK protocol: pharmacokinetic parameters in male Sprague Dawley rats; assay type: in vivo; details: plasma, rat; for Vd: read-out: Vdss
Protocol: Pharmacokinetic parameters were determined in male Sprague Dawley rats (Charles River, UK, 250-350 g; or Vital River Laboratory Animal Technology Co Ltd, Beijing, China, 7-9 weeks old). Animals were individually housed during the study and maintained under a 12 h light/dark cycle. Animals had free access to food and water except that some orally dosed animals were food deprived overnight prior to the study.
For intravenous administration, compounds were formulated as a solution in water or DMSO:PBS [10:90] in 2 mL/kg dosing volume and administered via tail vein. For oral administration, compounds were formulated as a solution in water or DMSO:water [10:90] in 5 mL/kg dosing volume and administered orally.
Serial blood samples (about 120-300 μL) were taken from each animal at each of 8 time-points post dose (0.083, 0.25, 0.5, 1, 2, 4, 8 and 24 h) or at each of 12 time-points post dose (0.03, 0.1, 0.17, 0.25, 0.5, 1, 2, 4, 6, 8, 12 and 24 h) or pre-dose and at each of 9 time-points post dose (0.25, 0.5, 1, 2, 4, 6, 8, 12 and 24 h). Samples were held on ice for no longer than 30 minutes before centrifugation (10,000 rpm (8,385 g) for 3 minutes; or 5,696 rpm (3,000 g) for 15 minutes) for plasma generation. Plasma was frozen on dry ice prior to bioanalysis. PK parameters were generated from LC-MS/MS data using Dotmatics or Phoenix WinNonlin 6.3 software.

NLRP3 [2] = biological target: T1, NLRP3 (Homo sapiens, UniProt Q96P20); assay: Human whole blood IL1β release assay; assay type: cell-based; design: Plate out 80 μl of whole blood containing 1 μg/ml of LPS; from tissue; host or cells: human whole blood from healthy donors, LPS-primed, nigericin-stimulated; details: 1 μg/ml LPS, nigericin 10 μM, IL-1β by AlphaLisa, read-out: HWB IC50
T1 sequence (Q96P20 whole entry): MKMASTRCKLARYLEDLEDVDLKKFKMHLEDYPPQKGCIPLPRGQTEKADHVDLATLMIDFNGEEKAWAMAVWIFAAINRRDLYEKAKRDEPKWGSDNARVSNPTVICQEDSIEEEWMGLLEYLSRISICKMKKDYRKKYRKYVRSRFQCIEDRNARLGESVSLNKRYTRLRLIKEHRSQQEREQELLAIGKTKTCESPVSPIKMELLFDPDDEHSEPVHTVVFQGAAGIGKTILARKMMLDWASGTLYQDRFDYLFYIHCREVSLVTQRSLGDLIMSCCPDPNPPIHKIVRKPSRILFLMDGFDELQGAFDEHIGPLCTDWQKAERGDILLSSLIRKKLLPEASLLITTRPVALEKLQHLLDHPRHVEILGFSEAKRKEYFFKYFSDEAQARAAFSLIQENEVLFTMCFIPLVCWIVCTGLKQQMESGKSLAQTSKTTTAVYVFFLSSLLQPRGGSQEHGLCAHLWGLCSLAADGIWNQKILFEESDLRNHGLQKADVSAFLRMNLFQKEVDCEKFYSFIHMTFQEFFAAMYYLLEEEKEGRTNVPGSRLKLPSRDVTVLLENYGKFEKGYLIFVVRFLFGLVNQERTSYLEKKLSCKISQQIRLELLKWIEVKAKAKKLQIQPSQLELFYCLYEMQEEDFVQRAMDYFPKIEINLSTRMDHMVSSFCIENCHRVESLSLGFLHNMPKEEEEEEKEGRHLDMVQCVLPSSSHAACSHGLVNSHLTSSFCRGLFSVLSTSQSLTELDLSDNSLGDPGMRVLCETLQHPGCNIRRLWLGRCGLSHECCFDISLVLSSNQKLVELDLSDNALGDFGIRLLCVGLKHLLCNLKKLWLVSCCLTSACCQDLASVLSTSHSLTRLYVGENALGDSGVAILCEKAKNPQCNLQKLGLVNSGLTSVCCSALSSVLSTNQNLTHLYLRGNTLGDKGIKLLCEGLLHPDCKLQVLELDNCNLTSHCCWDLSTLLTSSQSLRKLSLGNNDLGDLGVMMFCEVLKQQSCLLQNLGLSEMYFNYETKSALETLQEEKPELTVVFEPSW
Protocol: For systemic delivery, the ability to inhibit NLRP3 when the compounds are present within the bloodstream is of great importance. For this reason, the NLRP3 inhibitory activity of a number of compounds in human whole blood was investigated in accordance with the following protocol.
Human whole blood in Li-heparin tubes was obtained from healthy donors from a volunteer donor panel. • 1. Plate out 80 μl of whole blood containing 1 μg/ml of LPS in 96-well, clear bottom cell culture plate (Corning #3585) • 2. Add 10 μl compound (8 points half-log dilution with 10 μM top dose) or vehicle (DMSO 0.1% FAC) to the appropriate wells • 3. Incubate for 3 hrs at 37° C., 5% CO2 • 4. Add 10 μl Nigericin (Sigma #N7143) (10 μM FAC) to all wells • 5. Incubate for 1 hr at 37° C., 5% CO2 • 6. At the end of the incubation period, spin plates at 300×g for 5 mins to pellet cells and remove 20 μl of supernatant and add to 96-well v-bottom plates for IL-1β analysis (note: these plates containing the supernatants can be stored at −80° C. to be analysed at a later date) • 7. IL-1β was measured according to the manufacturer protocol (Perkin Elmer-AlphaLisa IL-1 Kit AL220F-5000) • 8. IC50 data is fitted to anon-linear regression equation (log inhibitor vs response-variable slope 4-parameters)

NLRP3 [3] = biological target: T1, NLRP3; assay: THP-1 cells pyroptosis assay; assay type: cell-based; design: Seed THP-1 cells (25,000 cells/well) containing 1.0 μg/ml LPS; host or cells: THP-1 cells, LPS-primed, nigericin-stimulated; details: 1.0 μg/ml LPS, nigericin 5 μM, resazurin readout
Method in brief: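 THP-1 cells (25,000/well, serum-free RPMI) primed with 1 μg/ml LPS were given compound (8-point half-log series, top 10 μM; 0.1% DMSO) for 3 h at 37 °C, then 5 μM nigericin for 1 h. Viability read by 100 μM resazurin fluorescence (Ex 560/Em 590) after 1–2 h; IC50 from four-parameter nonlinear regression.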

[4] = intravenous administration, dose per compound in Dose column (0.83-5.05 mg/kg)
[5] = oral administration, dose per compound in Dose column (3 or 5 mg/kg)

SMILES | AUC [1, 4] [ng·h/mL] | clearance [1, 4] [mL/min/kg] | half-life [1, 4] [min] | Vd [1, 4] [L/kg] | IC50 (NLRP3 [2]) [nM] | IC50 (NLRP3 [3]) [nM] | AUC [1, 5] [ng·h/mL] | CL/F [1, 5] [mL/min/kg] | Cmax [1, 5] [ng/mL] | Tmax [1, 5] [min] | bioavailability [1, 5] [%] | half-life [1, 5] [min]
CCN(C)C(=O)c1cc(S(=O)(=O)NC(=O)Nc2c3c(cc4c2CCC4)CCC3)nn1C [Example 62, N-Ethyl-3-(N-((1,2,3,5,6,7-hexahydro-s-indacen-4-yl)carbamoyl)sulfamoyl)-N,1-dimethyl-1H-pyrazole-5-carboxamide] | 1720 | 25 | 6 | 0.24 | 400 to 800 | 40 to 160 | – | – | – | – | – | –
CC(C)c1cccc(C(C)C)c1NC(=O)NS(=O)(=O)c1cc(C(=O)N(C)C)n(C)n1 [Example 67, 3-(N-((2,6-Diisopropylphenyl)carbamoyl)sulfamoyl)-N,N,1-trimethyl-1H-pyrazole-5-carboxamide] | 334 | 48.7 | 30 | 0.99 | < 400 | 160 to 640 | – | – | – | – | – | –
CC(C)c1cc(Cl)cc(C(C)C)c1NC(=O)NS(=O)(=O)c1cc(C(=O)N(C)C)n(C)n1 [Example 68, 3-(N-((4-Chloro-2,6-diisopropylphenyl)carbamoyl)sulfamoyl)-N,N,1-trimethyl-1H-pyrazole-5-carboxamide] | 353 | 161 | 78 | 10.6 | 1600 to 3200 | 40 to 160 | – | – | – | – | – | –
CN(C)C(=O)c1cc(S(=O)(=O)NC(=O)Nc2c3c(cc4c2CCC4)CCC3)nn1C [Example 69, 3-(N-((1,2,3,5,6,7-Hexahydro-s-indacen-4-yl)carbamoyl)sulfamoyl)-N,N,1-trimethyl-1H-pyrazole-5-carboxamide] | 3390 | 24.8 | 1520 | 17.8 | < 400 | 40 to 160 | 1050 | 49.5 | 600 | 15 | 62 | 204
